Experimental data published in BigSolDB 2.1.

For `O=[N+]([O-])c1cc[nH]n1`, the solubility (mole fraction) (in THF, 283.15 K) was 0.00254, the solubility (mole fraction) (in THF, 288.15 K) was 0.00305 and the solubility (mole fraction) (in THF, 293.15 K) was 0.00386. The solubility (mole fraction) (in THF, 298.15 K) was 0.00456, the solubility (mole fraction) (in THF, 303.15 K) was 0.00553 and the solubility (mole fraction) (in THF, 308.15 K) was 0.00654. The solubility (mole fraction) (in THF, 313.15 K) was 0.00761, the solubility (mole fraction) (in THF, 318.15 K) was 0.00903 and the solubility (mole fraction) (in THF, 323.15 K) was 0.0106. The solubility (mole fraction) (in acetone, 283.15 K) was 0.0129, the solubility (mole fraction) (in acetone, 288.15 K) was 0.0152 and the solubility (mole fraction) (in acetone, 293.15 K) was 0.0177. It also gave a solubility (mole fraction) (in acetone, 298.15 K) of 0.0202, a solubility (mole fraction) (in acetone, 303.15 K) of 0.0228 and a solubility (mole fraction) (in acetone, 308.15 K) of 0.0261. For the same compound, the solubility (mole fraction) (in acetone, 313.15 K) was 0.0301, the solubility (mole fraction) (in acetone, 318.15 K) was 0.0339 and the solubility (mole fraction) (in acetone, 323.15 K) was 0.0376. For the same compound, the solubility (mole fraction) (in acetonitrile, 283.15 K) was 0.0148, the solubility (mole fraction) (in acetonitrile, 288.15 K) was 0.017 and the solubility (mole fraction) (in acetonitrile, 293.15 K) was 0.0195. For the same compound, the solubility (mole fraction) (in acetonitrile, 298.15 K) was 0.0223, the solubility (mole fraction) (in acetonitrile, 303.15 K) was 0.0254 and the solubility (mole fraction) (in acetonitrile, 308.15 K) was 0.0289. For the same compound, the solubility (mole fraction) (in acetonitrile, 313.15 K) was 0.0327, the solubility (mole fraction) (in acetonitrile, 318.15 K) was 0.037 and the solubility (mole fraction) (in acetonitrile, 323.15 K) was 0.0418. For the same compound, the solubility (mole fraction) (in benzene, 283.15 K) was 0.00052, the solubility (mole fraction) (in benzene, 288.15 K) was 0.00066 and the solubility (mole fraction) (in benzene, 293.15 K) was 0.00086. It also gave a solubility (mole fraction) (in benzene, 298.15 K) of 0.00109, a solubility (mole fraction) (in benzene, 303.15 K) of 0.00139 and a solubility (mole fraction) (in benzene, 308.15 K) of 0.00171. For the same compound, the solubility (mole fraction) (in benzene, 313.15 K) was 0.00215, the solubility (mole fraction) (in benzene, 318.15 K) was 0.00265 and the solubility (mole fraction) (in benzene, 323.15 K) was 0.00323. It also gave a solubility (mole fraction) (in ethanol, 283.15 K) of 0.0254, a solubility (mole fraction) (in ethanol, 288.15 K) of 0.0292 and a solubility (mole fraction) (in ethanol, 293.15 K) of 0.0328. For the same compound, the solubility (mole fraction) (in ethanol, 298.15 K) was 0.0364, the solubility (mole fraction) (in ethanol, 303.15 K) was 0.041 and the solubility (mole fraction) (in ethanol, 308.15 K) was 0.0449. The solubility (mole fraction) (in ethanol, 313.15 K) was 0.0548, the solubility (mole fraction) (in ethanol, 318.15 K) was 0.0599 and the solubility (mole fraction) (in ethanol, 323.15 K) was 0.0646. For the same compound, the solubility (mole fraction) (in ethyl acetate, 283.15 K) was 0.00586, the solubility (mole fraction) (in ethyl acetate, 288.15 K) was 0.00728 and the solubility (mole fraction) (in ethyl acetate, 293.15 K) was 0.00905. The solubility (mole fraction) (in ethyl acetate, 298.15 K) was 0.0107, the solubility (mole fraction) (in ethyl acetate, 303.15 K) was 0.0133 and the solubility (mole fraction) (in ethyl acetate, 308.15 K) was 0.0163. For the same compound, the solubility (mole fraction) (in ethyl acetate, 313.15 K) was 0.0196, the solubility (mole fraction) (in ethyl acetate, 318.15 K) was 0.0236 and the solubility (mole fraction) (in ethyl acetate, 323.15 K) was 0.0282. For the same compound, the solubility (mole fraction) (in isopropyl acetate, 283.15 K) was 0.00234, the solubility (mole fraction) (in isopropyl acetate, 288.15 K) was 0.00292 and the solubility (mole fraction) (in isopropyl acetate, 293.15 K) was 0.00364. It also gave a solubility (mole fraction) (in isopropyl acetate, 298.15 K) of 0.00456, a solubility (mole fraction) (in isopropyl acetate, 303.15 K) of 0.00566 and a solubility (mole fraction) (in isopropyl acetate, 308.15 K) of 0.00695. It also gave a solubility (mole fraction) (in isopropyl acetate, 313.15 K) of 0.00849, a solubility (mole fraction) (in isopropyl acetate, 318.15 K) of 0.0102 and a solubility (mole fraction) (in isopropyl acetate, 323.15 K) of 0.0125. The solubility (mole fraction) (in methanol, 283.15 K) was 0.00822, the solubility (mole fraction) (in methanol, 288.15 K) was 0.0131 and the solubility (mole fraction) (in methanol, 293.15 K) was 0.017. It also gave a solubility (mole fraction) (in methanol, 298.15 K) of 0.0208, a solubility (mole fraction) (in methanol, 303.15 K) of 0.0256 and a solubility (mole fraction) (in methanol, 308.15 K) of 0.0338. It also gave a solubility (mole fraction) (in methanol, 313.15 K) of 0.0455, a solubility (mole fraction) (in methanol, 318.15 K) of 0.0605 and a solubility (mole fraction) (in methanol, 323.15 K) of 0.0854. It also gave a solubility (mole fraction) (in methyl acetate, 283.15 K) of 0.0083, a solubility (mole fraction) (in methyl acetate, 288.15 K) of 0.0102 and a solubility (mole fraction) (in methyl acetate, 293.15 K) of 0.0125. It also gave a solubility (mole fraction) (in methyl acetate, 298.15 K) of 0.0149, a solubility (mole fraction) (in methyl acetate, 303.15 K) of 0.0178 and a solubility (mole fraction) (in methyl acetate, 308.15 K) of 0.0209. It also gave a solubility (mole fraction) (in methyl acetate, 313.15 K) of 0.0244, a solubility (mole fraction) (in methyl acetate, 318.15 K) of 0.0282 and a solubility (mole fraction) (in methyl acetate, 323.15 K) of 0.032. The solubility (mole fraction) (in n-butyl acetate, 283.15 K) was 0.00323, the solubility (mole fraction) (in n-butyl acetate, 288.15 K) was 0.00423 and the solubility (mole fraction) (in n-butyl acetate, 293.15 K) was 0.00542. For the same compound, the solubility (mole fraction) (in n-butyl acetate, 298.15 K) was 0.00687, the solubility (mole fraction) (in n-butyl acetate, 303.15 K) was 0.00865 and the solubility (mole fraction) (in n-butyl acetate, 308.15 K) was 0.0107. The solubility (mole fraction) (in n-butyl acetate, 313.15 K) was 0.0132, the solubility (mole fraction) (in n-butyl acetate, 318.15 K) was 0.0159 and the solubility (mole fraction) (in n-butyl acetate, 323.15 K) was 0.0191. It also gave a solubility (mole fraction) (in n-propanol, 283.15 K) of 0.0224, a solubility (mole fraction) (in n-propanol, 288.15 K) of 0.0255 and a solubility (mole fraction) (in n-propanol, 293.15 K) of 0.0295. It also gave a solubility (mole fraction) (in n-propanol, 298.15 K) of 0.0336, a solubility (mole fraction) (in n-propanol, 303.15 K) of 0.0384 and a solubility (mole fraction) (in n-propanol, 308.15 K) of 0.0442. It also gave a solubility (mole fraction) (in n-propanol, 313.15 K) of 0.0481, a solubility (mole fraction) (in n-propanol, 318.15 K) of 0.0551 and a solubility (mole fraction) (in n-propanol, 323.15 K) of 0.0627. The solubility (mole fraction) (in n-propyl acetate, 283.15 K) was 0.00676, the solubility (mole fraction) (in n-propyl acetate, 288.15 K) was 0.00793 and the solubility (mole fraction) (in n-propyl acetate, 293.15 K) was 0.0092. The solubility (mole fraction) (in n-propyl acetate, 298.15 K) was 0.0106, the solubility (mole fraction) (in n-propyl acetate, 303.15 K) was 0.0123 and the solubility (mole fraction) (in n-propyl acetate, 308.15 K) was 0.0142. It also gave a solubility (mole fraction) (in n-propyl acetate, 313.15 K) of 0.0165, a solubility (mole fraction) (in n-propyl acetate, 318.15 K) of 0.0193 and a solubility (mole fraction) (in n-propyl acetate, 323.15 K) of 0.0225. It also gave a solubility (mole fraction) (in toluene, 283.15 K) of 0.00148, a solubility (mole fraction) (in toluene, 288.15 K) of 0.00187 and a solubility (mole fraction) (in toluene, 293.15 K) of 0.00232. It also gave a solubility (mole fraction) (in toluene, 298.15 K) of 0.00286, a solubility (mole fraction) (in toluene, 303.15 K) of 0.00354 and a solubility (mole fraction) (in toluene, 308.15 K) of 0.00437. The solubility (mole fraction) (in toluene, 313.15 K) was 0.00514, the solubility (mole fraction) (in toluene, 318.15 K) was 0.00623 and the solubility (mole fraction) (in toluene, 323.15 K) was 0.00729. For the same compound, the solubility (mole fraction) (in water, 283.15 K) was 0.00032, the solubility (mole fraction) (in water, 288.15 K) was 0.0004 and the solubility (mole fraction) (in water, 293.15 K) was 0.00051. The solubility (mole fraction) (in water, 298.15 K) was 0.00065, the solubility (mole fraction) (in water, 303.15 K) was 0.00083 and the solubility (mole fraction) (in water, 308.15 K) was 0.00105. It also gave a solubility (mole fraction) (in water, 313.15 K) of 0.00133, a solubility (mole fraction) (in water, 318.15 K) of 0.0017 and a solubility (mole fraction) (in water, 323.15 K) of 0.00216.
